Values quoted from earlier work in US9849196B2, “Methods and compositions for altering photophysical properties of fluorophores via proximal quenching” (Cornell University, priority 2009, dated 2017).

Conditions: background statement

Row | Structure (SMILES) | solubility in aqueous solutions
1 | O=[N+]([O-])c1ccc(CO)cc1 [NBA, p-nitrobenzyl alcohol] | highly insoluble
2 | Cc1c(C)c2c(c(C)c1O)CCC(C)(C(=O)O)O2 (stereo not drawn) [Trolox] | highly insoluble
3 | C1=CC=CC=CC=C1 [COT, cyclooctatetraene] | highly insoluble
